Assay results: patent US20250213512A1, “TRANSDERMAL ANALGESIC FORMULATION” (MEAT & LIVESTOCK AUSTRALIA LTD, priority 2017, published 2025)
Values joined by “and” are separate entries in the source; they are usually repeats but may differ in a detail not shown here. Equal entries are not always repeated.

Legend:
[1] = Solubility / precipitation of NSAIDs in the vehicles tested; details: vehicles screened
[2] = Screening of NSAID and vehicle combinations: penetration through cattle skin in vitro (Table 13)
Method: Hair was removed using an electric clipper and the subcutaneous fat and musculature carefully trimmed away before the skin was cut into circular sections (approximately 2 cm diameter) using a metal wad punch, and placed in airtight ziplock bags, stored at −20° C. within 5 hr of slaughter.
The skin samples were defrosted immediately prior to use and mounted on Franz diffusion cells. […] A glass cover slip was applied to each donor chamber to prevent evaporation of the donor solution. Samples (200 μL) were collected at regular intervals from the receptor chambers via the sampling port and immediately replenished with equal volumes of fresh receptor solution. At the completion of each study, the diffusions cells were dismantled and the skin discs were rinsed and stored.

[3] = 10% Flunixin, vehicle KET65 (Cromollient-SCE-LQ-(MH), 100% Di-PPG2-Myreth-10-Adipate), sample time 6 hrs
[4] = 10% Flunixin, vehicle KET93: Isopronanol 50% IPN, 1-Ethyl-2-Pryrrolidone 45% EP, Menthol 50 ng/mL, Buffer/EVAP None, sample time 0.5 hrs
[5] = 10% Flunixin, vehicle KET93: Isopronanol 50% IPN, 1-Ethyl-2-Pryrrolidone 45% EP, Menthol 50 ng/mL, Buffer/EVAP None, sample time 2 hrs
[6] = 10% Flunixin, vehicle KET93: Isopronanol 50% IPN, 1-Ethyl-2-Pryrrolidone 45% EP, Menthol 50 ng/mL, Buffer/EVAP None, sample time 4 hrs
[7] = 10% Flunixin, vehicle KET93: Isopronanol 50% IPN, 1-Ethyl-2-Pryrrolidone 45% EP, Menthol 50 ng/mL, Buffer/EVAP None, sample time 6 hrs
[8] = 10% Flunixin, vehicle KET95: Isopronanol 50% IPN, 1-Ethyl-2-Pryrrolidone 45% EP, Menthol 50 ng/mL, Buffer/EVAP None, sample time 0.2 hrs
[9] = 10% Flunixin, vehicle KET95: Isopronanol 50% IPN, 1-Ethyl-2-Pryrrolidone 45% EP, Menthol 50 ng/mL, Buffer/EVAP None, sample time 0.5 hrs
[10] = 10% Flunixin, vehicle KET95: Isopronanol 50% IPN, 1-Ethyl-2-Pryrrolidone 45% EP, Menthol 50 ng/mL, Buffer/EVAP None, sample time 2 hrs
[11] = 10% Flunixin, vehicle KET95: Isopronanol 50% IPN, 1-Ethyl-2-Pryrrolidone 45% EP, Menthol 50 ng/mL, Buffer/EVAP None, sample time 4 hrs
[12] = 10% Flunixin, vehicle KET96: Isopronanol 50% IPN, Propylene glycol 45% PPG, Eucalyptus oil […] 1,8-cineole, Buffer/EVAP None, sample time not printed (sample KET1430, replicate 1)
[13] = Flunixin 10% in vehicle KET46: Ethanol 70% EthOH, Propylene glycol 30% PPG, terpene None, 0.1M citrate, sample time 6 hrs
[14] = Flunixin 10% in vehicle KET46: Ethanol 70% EthOH, Propylene glycol 30% PPG, terpene None, 0.1M citrate, sample time 8 hrs

Concentration ([2]; 10% Flunixin, vehicle KET65 (Cromollient-SCE-LQ-(MH), 100% Di-PPG2-Myreth-10-Adipate), sample time 0.5 hrs): 0 ng/mL | Concentration ([2]; 10% Flunixin, vehicle KET65 (Cromollient-SCE-LQ-(MH), 100% Di-PPG2-Myreth-10-Adipate), sample time 2 hrs): 0 ng/mL | analysis conc ([2]; 10% Flunixin, vehicle KET65 (Cromollient-SCE-LQ-(MH), 100% Di-PPG2-Myreth-10-Adipate), sample time 4 hrs): 0.006 and 0.005 | analysis conc [2, 3]: 0.006 and 0.007 and 0.005 | Concentration [2, 4]: 96 ng/mL | analysis conc [2, 4]: 0.032 | Concentration [2, 5]: 102 ng/mL | analysis conc [2, 5]: 0.034 | Concentration [2, 6]: 543 ng/mL | analysis conc [2, 6]: 0.181 | Concentration [2, 7]: 579 ng/mL | analysis conc [2, 7]: 0.193 | Concentration ([2]; 10% Flunixin, vehicle KET94: Isopronanol 50% IPN, Propylene glycol 45% PPG, Eucalyptus oil […] 1,8-cineole, Buffer/EVAP None, sample time 2 hrs): 135 ng/mL | Concentration ([2]; 10% Flunixin, vehicle KET94: Isopronanol 50% IPN, Propylene glycol 45% PPG, Eucalyptus oil […] 1,8-cineole, Buffer/EVAP None, sample time 2 hrs, listed as Flunixin): 123 ng/mL | Concentration [2, 8]: 114 ng/mL | analysis conc [2, 8]: 0.038 | Concentration [2, 9]: 159 ng/mL and 237 ng/mL | analysis conc [2, 9]: 0.053 and 0.079 | analysis conc [2, 10]: 0.055 and 0.082 and 0.044 | analysis conc [2, 11]: 0.062 and 0.095 and 0.049 | Concentration [2, 12]: 60 ng/mL | analysis conc [2, 12]: 0.02 | Concentration ([2]; Flunixin 10% in vehicle KET46: Ethanol 70% EthOH, Propylene glycol 30% PPG, terpene None, 0.1M citrate, sample time 2 hrs): 0 ng/mL | Concentration ([2]; Flunixin 10% in vehicle KET46: Ethanol 70% EthOH, Propylene glycol 30% PPG, terpene None, 0.1M citrate, sample time 4 hrs): 0 ng/mL | Concentration [2, 13]: 36 ng/mL | analysis conc [2, 13]: 0.012 | Concentration [2, 14]: 36 ng/mL | analysis conc [2, 14]: 0.012 | analysis conc ([2]; Flunixin 10% in vehicle KET47: Ethanol 70% EthOH, Propylene glycol 30% PPG, Menthol 50 mg/mL, 0.1M citrate, sample time 0.5 hrs): 0.009 | Concentration ([2]; Flunixin 50%, vehicle KET38: Ethanol 50% EthOH, no co-solvent, Menthol 50 mg/mL, sample time 0.5 hrs, replicates 1-3): 0 ng/mL | Concentration ([2]; Flunixin 50%, vehicle KET38: Ethanol 50% EthOH, no co-solvent, Menthol 50 mg/mL, sample time 2 hrs, replicates 1-3): 0 ng/mL | Concentration ([2]; Flunixin 50%, vehicle KET38: Ethanol 50% EthOH, no co-solvent, Menthol 50 mg/mL, sample time 4 hrs, replicates 1-3): 0 ng/mL | Concentration ([2]; Flunixin 50%, vehicle KET38: Ethanol 50% EthOH, no co-solvent, Menthol 50 mg/mL, sample time 6 hrs, replicates 1-3): 0 ng/mL | Concentration ([2]; Flunixin 50%, vehicle KET38: Ethanol 50% EthOH, no co-solvent, Menthol 50 mg/mL, sample time 8 hrs, replicates 1-3): 0 ng/mL
SMILES: Cc1c(Nc2ncccc2C(=O)O)cccc1C(F)(F)F [flunixin, flunixin meglumine]
solubility in vehicles [1]: most soluble in the majority of vehicles examined | Concentration [2, 3]: 18 ng/mL and 21 ng/mL and 15 ng/mL | Concentration [2, 10]: 165 ng/mL and 246 ng/mL and 132 ng/mL | Concentration [2, 11]: 186 ng/mL and 285 ng/mL and 147 ng/mL
